Source: patent US9574189B2, “Enzymatic encoding methods for efficient synthesis of large libraries” (Nuevolution A/S, priority 2005, dated 2017)

Target: T1, human alpha-thrombin (Homo sapiens, UniProt P00734)
T1 construct: purchased Heamatologic Technologies Inc
Assay: Ki of released display molecule against thrombin, chromogenic substrate S-2238
Assay type: biochemical
Details: display molecule released by UV cleavage; 5 min incubation at 22° C.; nonlinear regression of Vmax; 95% confidence interval 0-13 nM
Method: To determine the Ki of the released display molecule against the protease thrombin, human alpha-thrombin (Heamatologic Technologies Inc.) was diluted in buffer (0.015 units/μl) and the released display molecule was added. Following 5 minutes of incubation at 22° C. a chromogenic substrate (Chromogenix catalogue number S-2238) was added and the maximum turnover (Vmax) of the enzyme was determined in a by measuring the change in absorbance at 405 nm using a Versamax reader (Molecular Devices). This was repeated for different concentrations of the released display molecule and different concentrations of substrate. The Vmax values obtained were then fitted using nonlinear regression implemented in the Prism software (Graphpad) to obtain the Ki of the display molecule.

Ki: 5.2 nM
SMILES: NC(=O)COc1ccc(Cl)cc1CNC(=O)[C@H]1CCCN1C(=O)[C@@H](N)C1CCCCC1
